Target: T1, sweet taste receptor (T1R2/T1R3) (Homo sapiens, UniProt Q7RTX0+Q8TE23)
T1 construct: endogenous in cells; host or cells: taste cells in the mouths of 3 trained human panelists (in vivo spitting test)
T1 sequence (Q8TE23 20-839): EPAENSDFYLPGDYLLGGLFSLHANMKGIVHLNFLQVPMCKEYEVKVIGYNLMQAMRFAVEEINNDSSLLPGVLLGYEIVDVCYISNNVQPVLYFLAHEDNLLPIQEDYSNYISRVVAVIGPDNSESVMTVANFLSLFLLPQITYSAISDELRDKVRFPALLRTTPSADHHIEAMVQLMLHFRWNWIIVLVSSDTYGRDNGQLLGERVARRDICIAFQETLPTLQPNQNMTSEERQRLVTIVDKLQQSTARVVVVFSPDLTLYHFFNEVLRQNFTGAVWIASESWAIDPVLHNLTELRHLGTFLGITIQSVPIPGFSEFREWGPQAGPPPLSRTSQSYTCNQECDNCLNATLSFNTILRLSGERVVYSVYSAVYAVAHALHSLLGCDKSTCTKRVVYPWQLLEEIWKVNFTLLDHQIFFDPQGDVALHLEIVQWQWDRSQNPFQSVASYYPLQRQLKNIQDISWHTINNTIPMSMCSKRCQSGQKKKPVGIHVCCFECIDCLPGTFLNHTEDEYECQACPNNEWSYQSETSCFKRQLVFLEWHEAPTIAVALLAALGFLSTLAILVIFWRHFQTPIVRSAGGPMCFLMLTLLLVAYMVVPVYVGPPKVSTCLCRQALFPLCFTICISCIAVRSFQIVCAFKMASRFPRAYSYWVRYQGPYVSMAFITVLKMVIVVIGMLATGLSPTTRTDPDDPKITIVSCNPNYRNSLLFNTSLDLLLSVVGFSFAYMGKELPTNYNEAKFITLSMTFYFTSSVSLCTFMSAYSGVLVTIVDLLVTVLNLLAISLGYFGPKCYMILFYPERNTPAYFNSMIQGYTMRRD
T1 sequence (Q7RTX0 21-852): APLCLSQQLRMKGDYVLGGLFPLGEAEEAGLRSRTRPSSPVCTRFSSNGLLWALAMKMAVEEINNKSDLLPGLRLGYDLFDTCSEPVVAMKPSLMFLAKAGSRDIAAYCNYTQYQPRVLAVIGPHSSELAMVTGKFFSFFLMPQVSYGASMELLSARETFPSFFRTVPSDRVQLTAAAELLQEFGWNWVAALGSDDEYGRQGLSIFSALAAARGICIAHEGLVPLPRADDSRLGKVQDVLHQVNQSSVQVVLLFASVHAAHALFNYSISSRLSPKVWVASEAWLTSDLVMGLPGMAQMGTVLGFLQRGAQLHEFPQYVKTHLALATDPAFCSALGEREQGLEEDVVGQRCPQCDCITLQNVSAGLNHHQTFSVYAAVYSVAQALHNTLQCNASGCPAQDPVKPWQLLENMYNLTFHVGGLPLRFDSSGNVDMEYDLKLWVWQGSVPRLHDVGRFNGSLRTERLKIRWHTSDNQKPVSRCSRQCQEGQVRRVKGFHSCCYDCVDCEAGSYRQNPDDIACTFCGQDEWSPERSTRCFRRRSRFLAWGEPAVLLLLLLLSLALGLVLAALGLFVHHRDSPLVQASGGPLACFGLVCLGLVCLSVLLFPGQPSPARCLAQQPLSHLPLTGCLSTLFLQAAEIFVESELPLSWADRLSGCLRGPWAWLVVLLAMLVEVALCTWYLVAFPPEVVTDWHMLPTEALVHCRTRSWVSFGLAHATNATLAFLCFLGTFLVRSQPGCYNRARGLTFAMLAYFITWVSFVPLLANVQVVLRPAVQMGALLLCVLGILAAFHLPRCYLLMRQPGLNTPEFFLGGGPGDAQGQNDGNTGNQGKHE
Assay: Sensory evaluation of sweetness intensity (VAS) in the co-presence of sweet taste receptor inhibitor lactisole (Example 5)
Format: in vivo
Description: Whether or not a certain sweet substance can trigger a sweetness response even if a sweetness response through the sweet taste receptor T1R2/T1R3 is inhibited may be determined by, for instance, measuring, by sensory evaluation or cell assay, the sweetness intensity of a solution (control solution), in which only the above sweet substance has been dissolved, and the sweetness intensity (remaining sweetness intensity) of a solution (test solution), in which a sweet taste receptor T1R2/T1R3 inhibitor (e.g., lactisole, gymnemic acid) is added for inhibiting a sweetness response through the sweet taste receptor T1R2/T1R3 to the control solution; and by comparing the sweetness intensity of the control solution and the sweetness intensity of the test solution.
The evaluation was carried out by those (3 persons) who received sensory trainings as panelists. […] Additionally, solutions having the same composition as sample solutions 1, 2, 3, and 4 except that lactisole was not added were used as control solutions 1, 2, 3, and 4. The sensory evaluation was carried out by spitting test. The sweetness intensity was rated by the VAS scale and calculated with the intensity of a solution to which lactisole was not added being 100% and the sweetness intensity of a solution to which lactisole was added as a relative value (%). The sweetness inhibitory effect by lactisole was verified by this.

Q: O=C[C@@H](O)[C@H](O)[C@H](O)CO [D-Arabinose] was tested. Which “remaining sweetness intensity when 100 ppm of lactisole was added, compared with sucrose” value (100 ppm lactisole) did it give?
A: equal to or more than that of sucrose

Q: And the “Sweetness intensity residual ratio (%) with addition of 100 ppm lactisole” value (lactisole-free solution = 100%, sucrose 8 w/v %, sucralose 149 ppm, D- or L-arabinose 13.3 w/v %, VAS, average of n=3)?
A: 42.47%
